For assay [1], the system named is Glomerella lagenarium (Colletotrichum lagenarium). Nature of the assay: Glomerella lagenarium (Colletotrichum lagenarium) / liquid culture (anthracnose). In kind it is cell-based. The settings on record: Colletotrichum orbiculare, 72 h, 200 ppm in the formulation, inhibition of growth measured photometrically 3 to 4 days after application, compared to untreated control, read-out: disease control. On the procedure:
Glomerella lagenarium (Colletotrichum lagenarium)/Liquid Culture (Anthracnose) Conidia of the fungus from cryogenic storage are directly mixed into nutrient broth (PDB potato dextrose broth). After placing a (DMSO) solution of test compound into a microtiter plate (96-well format), the nutrient broth containing the fungal spores is added. The test plates are incubated at 24° C. and the inhibition of growth is measured photometrically 3 to 4 days after application.

The test system of assay [2] is Monographella nivalis (Microdochium nivale). The assay can be described thus: Monographella nivalis (Microdochium nivale) / liquid culture (foot rot cereals). In kind it is cell-based. To be noted: 96 h, 200 ppm in the formulation, inhibition of growth determined photometrically 4-5 days after application, compared to untreated control, read-out: disease control. As for the experimental part: Monographella nivalis (Microdochium nivale)/Liquid Culture (Foot Rot Cereals) Conidia of the fungus from cryogenic storage are directly mixed into nutrient broth (PDB potato dextrose broth). After placing a (DMSO) solution of test compound into a microtiter plate (96-well format), the nutrient broth containing the fungal spores is added. The test plates are incubated at 24° C. and the inhibition of growth is determined photometrically 4-5 days after application.

For assay [3], the system named is Mycosphaerella arachidis (Cercospora arachidicola). Nature of the assay: Mycosphaerella arachidis (Cercospora arachidicola) / liquid culture (early leaf spot). The settings on record: 96 h, 200 ppm in the formulation, inhibition of growth determined photometrically 4-5 days after application, compared to untreated control, read-out: disease control. In kind it is cell-based. On the procedure:
Mycosphaerella arachidis (Cercospora arachidicola)/Liquid Culture (Early Leaf Spot) Conidia of the fungus from cryogenic storage are directly mixed into nutrient broth (PDB potato dextrose broth). After placing a (DMSO) solution of test compound into a microtiter plate (96-well format), the nutrient broth containing the fungal spores is added. The test plates are incubated at 24° C. and the inhibition of growth is determined photometrically 4-5 days after application.

The subject of assay [4] is Mycosphaerella graminicola (Septoria tritici). Nature of the assay: Mycosphaerella graminicola (Septoria tritici) / liquid culture (Septoria blotch). In kind it is cell-based. To be noted: Zymoseptoria tritici, 96 h, 200 ppm in the formulation, inhibition of growth determined photometrically 4 to 5 days after application, compared to untreated control, read-out: disease control. As for the experimental part:
Mycosphaerella graminicola (Septoria tritici)/Liquid Culture (Septoria Blotch) Conidia of the fungus from cryogenic storage are directly mixed into nutrient broth (PDB potato dextrose broth). After placing a (DMSO) solution of test compound into a microtiter plate (96-well format), the nutrient broth containing the fungal spores is added. The test plates are incubated at 24° C. and the inhibition of growth is determined photometrically 4 to 5 days after application.

In assay [5] the test system is Phaeosphaeria nodorum (Septoria nodorum). The assay can be described thus: Phaeosphaeria nodorum (Septoria nodorum) / wheat / leaf disc preventative (glume blotch). In kind it is in vivo. The settings on record: 200 ppm in the formulation; wheat leaf segments cv. Kanzler; compared to untreated control; 5-7 days after application. On the procedure: Phaeosphaeria nodorum (Septoria nodorum)/Wheat/Leaf Disc Preventative (Glume Blotch) Wheat leaf segments cv. Kanzler are placed on agar in a multiwell plate (24-well format) and sprayed with the formulated test compound diluted in water. The leaf disks are inoculated with a spore suspension of the fungus 2 days after application. The inoculated test leaf disks are incubated at 20° C. and 75% rh under a light regime of 12 h light/12 h darkness in a climate cabinet and the activity of a compound is assessed as percent disease control compared to untreated when an appropriate level of disease damage appears in untreated check leaf disks (5-7 days after application).

Assay [6] concerns Blumeria graminis f. Sp. tritici (Erysiphe graminis f. Sp. tritici). The assay can be described thus: Blumeria graminis f. sp. tritici / wheat / leaf disc preventative (powdery mildew on wheat). In kind it is in vivo. To be noted: 200 ppm in the formulation; wheat leaf segments cv. Kanzler; compared to untreated control; 6-8 days after application. The text has this:
Blumeria graminis f. Sp. tritici (Erysiphe graminis f. Sp. tritici)/Wheat/Leaf Disc Preventative (Powdery Mildew on Wheat) Wheat leaf segments cv. Kanzler are placed on agar in a multiwell plate (24-well format) and sprayed with the test compound formulated with DMSO and Tween20 and diluted in water. The leaf disks are inoculated by shaking powdery mildew infected plants above the test plates 1 day after application.

Assay [7] has as its system Botryotinia fuckeliana (Botrytis cinerea). Nature of the assay: Botryotinia fuckeliana (Botrytis cinerea) / liquid culture (gray mould). In kind it is cell-based. The settings on record: 72 h, 200 ppm in the formulation, inhibition of growth determined photometrically 3-4 days after application, compared to untreated control, read-out: disease control. On the procedure:
Botryotinia fuckeliana (Botrytis cinerea)/Liquid Culture (Gray Mould) Conidia of the fungus from cryogenic storage are directly mixed into nutrient broth (Vogels broth). After placing a (DMSO) solution of test compound into a microtiter plate (96-well format), the nutrient broth containing the fungal spores is added. The test plates are incubated at 24° C. and the inhibition of growth is determined photometrically 3-4 days after application.

As for `COc1ccnc(C(=O)N[C@@H](C)C(=O)OC2CCC2(c2ccccc2C)c2ccccc2C)c1O` (stereo partly drawn) [I.o.02, [2,2-bis(o-tolyl)cyclobutyl] (2S)-2-[(3-hydroxy-4-methoxy-pyridine-2-carbonyl)amino]propanoate], the inhibition of growth at 200 ppm in assay [1], in assay [2], in assay [3] and in assay [4] was no less than 80% each time. Besides, the disease control result in assay [5] is listed as “at least 80%”.

Turning to `COc1cccc(C2(c3cccc(OC)c3)CCC2OC(=O)[C@H](C)NC(=O)c2nccc(OC)c2O)c1` (stereo partly shown) [I.t.02], the disease control entry in assay [6] is “at least 80%”. In addition, the inhibition of growth at 200 ppm in assay [7], in assay [1], in assay [2], in assay [3] and in assay [4] was no less than 80% in each case.

Take `COc1ccnc(C(=O)N[C@@H](C)C(=O)OC2CCC2(c2ccc(F)cc2)c2ccc(F)cc2)c1OC(C)=O` (stereo partly drawn) [I.u.14, [2,2-bis(4-fluorophenyl)cyclobutyl] (2S)-2-[(3-acetoxy-4-methoxy-pyridine-2-carbonyl)amino]propanoate]: the inhibition of growth at 200 ppm in assay [7], in assay [1], in assay [2], in assay [3] and in assay [4] was no less than 80% in each case.
